Data: article PMC5933747 (PLoS ONE, 2018)
Read-outs that look alike come from different tables or passages of the source.

How the values were obtained:
human NaV1.7 [1] = molecular target: T1, human NaV1.7 (Homo sapiens, UniProt Q15858)
human NaV1.4 [2] = molecular target: T2, human NaV1.4 (Homo sapiens, UniProt P35499); assay: PatchXpress (PX) automated electrophysiology, human NaV1.4; format: cell-based; settings: for IC50: PX platform, at least ten cells, two to three data points per concentration
Protocol: Human NaV (hNaV) stably transfected cell lines in HEK293 or CHO backgrounds and cell culture methods were as previously described. hNaV1.1-hNaV1.7 cells were obtained from Eurofins Pharma Discovery Services (St. Charles, MO), and hNaV1.8 cells were generated in house. Whole cell patch clamp, PatchXpress, and IWQ electrophysiology voltage protocols as well as DRG neuron isolation were carried out as previously described. NaV1.7-NaV1.5 chimeras were generated and evaluated in BacMam transduced U2-OS cells on the IWQ platform as previously described.

human NaV1.5 [3] = molecular target: T3, human NaV1.5 (Homo sapiens, UniProt Q14524); assay: PatchXpress (PX) automated electrophysiology, human NaV1.5; format: cell-based; settings: PX platform; at least ten cells, two to three data points per concentration
T3 sequence (Q14524 whole entry): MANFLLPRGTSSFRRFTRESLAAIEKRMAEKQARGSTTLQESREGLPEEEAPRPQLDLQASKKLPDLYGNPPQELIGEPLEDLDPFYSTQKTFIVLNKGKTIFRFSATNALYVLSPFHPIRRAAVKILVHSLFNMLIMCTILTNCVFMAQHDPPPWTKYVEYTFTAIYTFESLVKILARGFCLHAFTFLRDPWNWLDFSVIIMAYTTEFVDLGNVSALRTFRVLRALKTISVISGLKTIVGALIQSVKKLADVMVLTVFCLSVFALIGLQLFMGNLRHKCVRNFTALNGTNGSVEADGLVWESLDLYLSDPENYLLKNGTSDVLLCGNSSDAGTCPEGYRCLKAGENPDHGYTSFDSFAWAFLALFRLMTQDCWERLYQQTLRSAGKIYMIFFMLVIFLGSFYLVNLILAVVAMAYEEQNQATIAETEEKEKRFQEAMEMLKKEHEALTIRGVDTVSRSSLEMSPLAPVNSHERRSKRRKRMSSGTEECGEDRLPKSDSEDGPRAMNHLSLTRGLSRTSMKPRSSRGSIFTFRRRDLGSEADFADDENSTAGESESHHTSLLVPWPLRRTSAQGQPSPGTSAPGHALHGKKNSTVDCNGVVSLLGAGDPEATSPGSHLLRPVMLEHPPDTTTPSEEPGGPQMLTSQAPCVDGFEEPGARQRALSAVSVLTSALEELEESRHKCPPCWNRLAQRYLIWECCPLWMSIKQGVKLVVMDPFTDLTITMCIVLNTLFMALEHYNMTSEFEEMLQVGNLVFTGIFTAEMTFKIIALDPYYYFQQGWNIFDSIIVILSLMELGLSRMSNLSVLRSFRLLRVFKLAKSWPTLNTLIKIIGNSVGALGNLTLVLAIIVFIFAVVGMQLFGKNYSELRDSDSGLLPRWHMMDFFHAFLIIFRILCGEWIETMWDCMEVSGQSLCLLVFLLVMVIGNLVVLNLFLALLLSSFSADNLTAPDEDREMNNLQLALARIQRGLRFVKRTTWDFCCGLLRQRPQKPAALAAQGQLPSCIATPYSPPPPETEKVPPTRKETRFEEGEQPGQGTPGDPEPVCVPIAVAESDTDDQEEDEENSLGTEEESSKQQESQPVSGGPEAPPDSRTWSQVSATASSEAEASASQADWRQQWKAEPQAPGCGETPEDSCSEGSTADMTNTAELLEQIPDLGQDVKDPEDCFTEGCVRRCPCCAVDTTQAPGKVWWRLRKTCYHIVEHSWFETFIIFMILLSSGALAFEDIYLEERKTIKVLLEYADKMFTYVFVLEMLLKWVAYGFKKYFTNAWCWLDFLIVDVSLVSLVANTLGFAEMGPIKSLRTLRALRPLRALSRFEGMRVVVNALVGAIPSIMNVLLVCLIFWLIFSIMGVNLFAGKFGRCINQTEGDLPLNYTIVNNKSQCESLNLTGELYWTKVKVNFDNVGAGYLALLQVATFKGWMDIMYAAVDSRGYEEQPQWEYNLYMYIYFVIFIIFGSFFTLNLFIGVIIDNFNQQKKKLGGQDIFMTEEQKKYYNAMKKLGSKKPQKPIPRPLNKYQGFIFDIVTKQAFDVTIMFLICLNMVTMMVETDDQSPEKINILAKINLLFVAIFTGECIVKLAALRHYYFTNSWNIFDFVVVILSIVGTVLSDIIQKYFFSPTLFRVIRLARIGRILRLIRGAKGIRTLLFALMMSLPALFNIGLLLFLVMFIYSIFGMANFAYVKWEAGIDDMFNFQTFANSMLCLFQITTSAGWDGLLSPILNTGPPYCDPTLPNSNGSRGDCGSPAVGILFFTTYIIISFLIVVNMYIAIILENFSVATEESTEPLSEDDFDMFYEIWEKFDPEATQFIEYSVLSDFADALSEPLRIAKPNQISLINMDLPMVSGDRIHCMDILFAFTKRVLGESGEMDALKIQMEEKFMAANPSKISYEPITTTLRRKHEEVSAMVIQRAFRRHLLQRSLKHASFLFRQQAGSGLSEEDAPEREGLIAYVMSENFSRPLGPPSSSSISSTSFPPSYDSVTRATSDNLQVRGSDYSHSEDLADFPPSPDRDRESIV

human NaV1.5 [4] = molecular target: T3, human NaV1.5; assay: IonWorks Quattro (IWQ) electrophysiology, human NaV1.5; format: cell-based
human NaV1.7 [5] = molecular target: T1, human NaV1.7; assay: IonWorks Quattro (IWQ) electrophysiology, human NaV1.7; format: cell-based
human NaV1.4 [6] = molecular target: T2, human NaV1.4; assay: IonWorks Quattro (IWQ) electrophysiology, human NaV1.4; format: cell-based
[7] = read-out: Glu mutant IWQ IC50 NaV1.7
[8] = read-out: Glu mutant IWQ IC50 NaV1.4
[9] = read-out: Glu mutant IWQ IC50 NaV1.5

T1 sequence (Q15858 whole entry): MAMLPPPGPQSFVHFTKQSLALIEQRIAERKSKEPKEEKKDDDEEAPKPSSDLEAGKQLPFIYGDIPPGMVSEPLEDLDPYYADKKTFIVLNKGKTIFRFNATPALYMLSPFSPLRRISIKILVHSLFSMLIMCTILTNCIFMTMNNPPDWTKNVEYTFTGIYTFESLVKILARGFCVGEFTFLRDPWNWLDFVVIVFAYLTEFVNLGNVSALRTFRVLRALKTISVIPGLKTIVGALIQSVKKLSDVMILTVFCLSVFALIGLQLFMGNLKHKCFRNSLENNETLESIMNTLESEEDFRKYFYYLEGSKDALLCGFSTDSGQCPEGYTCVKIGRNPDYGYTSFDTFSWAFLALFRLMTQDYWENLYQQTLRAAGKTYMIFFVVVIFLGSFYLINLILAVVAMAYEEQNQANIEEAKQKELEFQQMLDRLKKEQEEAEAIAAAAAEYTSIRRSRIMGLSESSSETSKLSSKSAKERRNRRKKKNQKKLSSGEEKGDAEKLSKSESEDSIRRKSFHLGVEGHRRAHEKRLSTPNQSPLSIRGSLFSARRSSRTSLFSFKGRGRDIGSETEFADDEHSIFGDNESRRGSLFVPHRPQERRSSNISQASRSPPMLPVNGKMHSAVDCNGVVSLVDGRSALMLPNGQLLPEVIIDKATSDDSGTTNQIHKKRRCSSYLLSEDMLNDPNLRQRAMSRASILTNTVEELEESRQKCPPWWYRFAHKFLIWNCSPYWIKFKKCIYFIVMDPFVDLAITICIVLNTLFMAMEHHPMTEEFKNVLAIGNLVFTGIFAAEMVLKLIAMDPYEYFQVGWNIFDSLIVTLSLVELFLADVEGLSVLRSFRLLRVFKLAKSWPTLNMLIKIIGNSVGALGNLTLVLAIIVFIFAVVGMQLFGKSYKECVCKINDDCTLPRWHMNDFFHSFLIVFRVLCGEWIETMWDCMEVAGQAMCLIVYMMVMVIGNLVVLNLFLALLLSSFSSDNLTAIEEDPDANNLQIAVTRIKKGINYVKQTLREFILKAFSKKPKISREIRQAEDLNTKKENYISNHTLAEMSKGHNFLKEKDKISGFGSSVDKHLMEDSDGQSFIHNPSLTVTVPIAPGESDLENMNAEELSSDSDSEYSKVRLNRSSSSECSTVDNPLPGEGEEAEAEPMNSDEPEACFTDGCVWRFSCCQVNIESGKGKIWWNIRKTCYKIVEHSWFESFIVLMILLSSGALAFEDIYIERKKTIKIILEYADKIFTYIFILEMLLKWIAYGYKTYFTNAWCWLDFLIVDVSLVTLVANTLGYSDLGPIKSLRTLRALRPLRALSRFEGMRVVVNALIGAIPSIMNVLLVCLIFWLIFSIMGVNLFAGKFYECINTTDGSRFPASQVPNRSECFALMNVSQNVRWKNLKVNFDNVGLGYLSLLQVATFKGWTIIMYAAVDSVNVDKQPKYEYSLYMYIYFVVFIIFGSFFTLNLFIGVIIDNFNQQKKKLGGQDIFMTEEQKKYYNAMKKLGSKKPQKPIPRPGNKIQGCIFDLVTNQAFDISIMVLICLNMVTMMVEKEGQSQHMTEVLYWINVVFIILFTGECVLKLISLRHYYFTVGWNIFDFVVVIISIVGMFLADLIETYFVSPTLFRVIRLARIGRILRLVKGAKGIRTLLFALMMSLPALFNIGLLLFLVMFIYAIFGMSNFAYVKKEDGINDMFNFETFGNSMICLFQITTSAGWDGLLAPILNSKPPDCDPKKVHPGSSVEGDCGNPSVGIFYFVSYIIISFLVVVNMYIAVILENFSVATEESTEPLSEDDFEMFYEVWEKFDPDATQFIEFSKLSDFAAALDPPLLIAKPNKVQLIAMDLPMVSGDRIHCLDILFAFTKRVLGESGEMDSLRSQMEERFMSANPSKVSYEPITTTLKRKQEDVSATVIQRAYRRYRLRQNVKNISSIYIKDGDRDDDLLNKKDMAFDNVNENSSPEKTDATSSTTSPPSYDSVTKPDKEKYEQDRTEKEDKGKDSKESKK

## [Nle6;Pra17;Glu28]JzTx-V(1–29) (peptide)
Human NaV1.7 [1]
  NaV1.7 IC50 (nM), block of human NaV1.7 current, PatchXpress (PX) platform: 3.6 nM

## Pra-[Nle6]JzTx-V(1–29) (peptide)
Human NaV1.7 [1]
  NaV1.7 IC50 (nM), block of human NaV1.7 current, PatchXpress (PX) platform: 1.2 nM

## CyA-[Nle6;Pra17;Glu28]JzTx-V(1–29) (peptide)
Human NaV1.7 [1]
  NaV1.7 IC50 (nM), block of human NaV1.7 current, PatchXpress (PX) platform: 0.8 nM

## C#CC[C@@H]1NC(=O)[C@H](CC(=O)O)NC(=O)[C@@H]2CSSC[C@@H]3NC(=O)[C@H](CCCNC(=N)N)NC(=O)[C@H](CC(C)C)NC(=O)CNC(=O)[C@H](CCC(=O)O)NC(=O)[C@H](CSSC[C@H](NC(=O)[C@@H](N)Cc4ccc(O)cc4)C(=O)N[C@@H](CCC(N)=O)C(=O)N[C@@H](CCCCN)C(=O)N[C@@H](Cc4c[nH]c5ccccc45)C(=O)N[C@@H](CCCC)C(=O)N[C@@H](Cc4c[nH]c5ccccc45)C(=O)N[C@@H]([C@@H](C)O)C(=O)N2)NC(=O)[C@H](CSSC[C@@H](C(=O)N[C@@H](CCCNC(=N)N)C(=O)N[C@@H](CCCCN)C(=O)N[C@@H](CCC(=O)O)C(=O)N[C@H](C(N)=O)[C@@H](C)CC)NC(=O)[C@H](Cc2c[nH]c4ccccc24)NC(=O)[C@H](CC(C)C)NC(=O)[C@H](CCCCN)NC3=O)NC(=O)[C@H](C)NC(=O)[C@H](CCCNC(=N)N)NC(=O)[C@H](CCCCN)NC1=O [Peptide 5, [Nle6;Pra11;Glu28]JzTx-V(1–29)]
Human NaV1.4 [2]
  IC50: 194 nM
Human NaV1.5 [3]
  IC50: 6000 nM

## [Pra1;Nle6;Glu28]JzTx-V(1–29) (peptide)
Human NaV1.7 [1]
  NaV1.7 IC50 (nM), block of human NaV1.7 current, PatchXpress (PX) platform: 0.3 nM

## [Nle6;Pra14;Glu28]JzTx-V(1–29) (peptide)
Human NaV1.7 [1]
  NaV1.7 IC50 (nM), block of human NaV1.7 current, PatchXpress (PX) platform: 0.5 nM

## C#CC[C@@H]1NC(=O)[C@H](CCCNC(=N)N)NC(=O)[C@H](CCCCN)NC(=O)[C@H](CO)NC(=O)[C@H](CC(=O)O)NC(=O)[C@@H]2CSSC[C@@H]3NC(=O)[C@H](CCCNC(=N)N)NC(=O)[C@H](CC(C)C)NC(=O)CNC(=O)[C@H](CCC(=O)O)NC(=O)[C@H](CSSC[C@H](NC(=O)[C@@H](N)Cc4ccc(O)cc4)C(=O)N[C@@H](CCC(N)=O)C(=O)N[C@@H](CCCCN)C(=O)N[C@@H](Cc4c[nH]c5ccccc45)C(=O)N[C@@H](CCCC)C(=O)N[C@@H](Cc4c[nH]c5ccccc45)C(=O)N[C@@H]([C@@H](C)O)C(=O)N2)NC(=O)[C@H](CSSC[C@@H](C(=O)N[C@@H](CCCNC(=N)N)C(=O)N[C@@H](CCCCN)C(=O)N[C@@H](CCC(=O)O)C(=O)N[C@H](C(N)=O)[C@@H](C)CC)NC(=O)[C@H](Cc2c[nH]c4ccccc24)NC(=O)[C@H](CC(C)C)NC(=O)[C@H](CCCCN)NC3=O)NC1=O [Peptide 6, [Nle6;Pra14;Glu28]JzTx-V(1–29)]
Human NaV1.4 [2]
  IC50: 110 nM
Human NaV1.5 [3]
  IC50: 3500 nM

## C#CC[C@@H]1NC(=O)[C@@H]2CSSC[C@H](NC(=O)[C@@H](N)Cc3ccc(O)cc3)C(=O)N[C@@H](CCC(N)=O)C(=O)N[C@@H](CCCCN)C(=O)N[C@@H](Cc3c[nH]c4ccccc34)C(=O)N[C@@H](CCCC)C(=O)N[C@@H](Cc3c[nH]c4ccccc34)C(=O)N[C@@H]([C@@H](C)O)C(=O)N[C@H]3CSSC[C@H](NC(=O)[C@H](CCCNC(=N)N)NC(=O)[C@H](CC(C)C)NC(=O)CNC1=O)C(=O)N[C@@H](CCCCN)C(=O)N[C@@H](CC(C)C)C(=O)N[C@@H](Cc1c[nH]c4ccccc14)C(=O)N[C@H](C(=O)N[C@@H](CCCNC(=N)N)C(=O)N[C@@H](CCCCN)C(=O)N[C@@H](CCC(=O)O)C(=O)N[C@H](C(N)=O)[C@@H](C)CC)CSSC[C@H](NC(=O)[C@H](C)NC(=O)[C@H](CCCNC(=N)N)NC(=O)[C@H](CCCCN)NC(=O)[C@H](CO)NC(=O)[C@H](CC(=O)O)NC3=O)C(=O)N2 [Peptide 7, [Nle6;Pra17;Glu28]JzTx-V(1–29)]
Human NaV1.4 [2]
  IC50: 130 nM
Human NaV1.5 [3]
  IC50: 3100 nM

## [Glu28]JzTx-V(1–29) (peptide)
Human NaV1.7 [1]
  NaV1.7 IC50 (nM), block of human NaV1.7 current, PatchXpress (PX) platform: 0.6 nM

## CC[C@H](C)[C@H](NC(=O)[C@H](CCC(=O)O)NC(=O)[C@H](CCCCN)NC(=O)[C@H](CCCNC(=N)N)NC(=O)[C@@H]1CSSC[C@@H]2NC(=O)[C@H](C)NC(=O)[C@H](CCCNC(=N)N)NC(=O)[C@H](CCCCN)NC(=O)[C@H](CO)NC(=O)[C@H](CC(=O)O)NC(=O)[C@@H]3CSSC[C@H](NC(=O)[C@H](CCCNC(=N)N)NC(=O)[C@H](CC(C)C)NC(=O)CNC(=O)[C@H](CCC(=O)O)NC(=O)[C@H](CSSC[C@H](NC(=O)[C@@H](N)Cc4ccc(O)cc4)C(=O)N[C@@H](CCC(N)=O)C(=O)N[C@@H](CCCCN)C(=O)N[C@@H](Cc4c[nH]c5ccccc45)C(=O)N[C@@H](CCSC)C(=O)N[C@@H](Cc4c[nH]c5ccccc45)C(=O)N[C@@H]([C@@H](C)O)C(=O)N3)NC2=O)C(=O)N[C@@H](CCCCN)C(=O)N[C@@H](CC(C)C)C(=O)N[C@@H](Cc2c[nH]c3ccccc23)C(=O)N1)C(N)=O [Peptide 1, [Glu28]JzTx-V(1–29)]
Human NaV1.4 [2]; PX platform IC50 ratio
  selectivity for NaV1.7 over NaV1.4: 500 fold
Human NaV1.5 [4]; human, read-out: Glu mutant IWQ IC50 NaV1.5
  IC50: > 5000 nM

## [Nle6;Pra11;Glu28]JzTx-V(1–29) (peptide)
Human NaV1.7 [1]
  NaV1.7 IC50 (nM), block of human NaV1.7 current, PatchXpress (PX) platform: 0.5 nM

## CC[C@H](C)[C@H](NC(=O)[C@@H](NC(=O)[C@H](CCCCN)NC(=O)[C@H](CCCNC(=N)N)NC(=O)[C@@H]1CSSC[C@@H]2NC(=O)[C@H](C)NC(=O)[C@H](CCCNC(=N)N)NC(=O)[C@H](CCCCN)NC(=O)[C@H](CO)NC(=O)[C@H](CC(=O)O)NC(=O)[C@@H]3CSSC[C@H](NC(=O)[C@H](CCCNC(=N)N)NC(=O)[C@H](CC(C)C)NC(=O)CNC(=O)[C@H](CCC(=O)O)NC(=O)[C@H](CSSC[C@H](NC(=O)[C@@H](N)Cc4ccc(O)cc4)C(=O)N[C@@H](CCC(N)=O)C(=O)N[C@@H](CCCCN)C(=O)N[C@@H](Cc4c[nH]c5ccccc45)C(=O)N[C@@H](CCSC)C(=O)N[C@@H](Cc4c[nH]c5ccccc45)C(=O)N[C@@H]([C@@H](C)O)C(=O)N3)NC2=O)C(=O)N[C@@H](CCC(=O)O)C(=O)N[C@@H](CC(C)C)C(=O)N[C@@H](Cc2c[nH]c3ccccc23)C(=O)N1)[C@@H](C)CC)C(N)=O [K22 Glu mutant]
Human NaV1.7 [5]; [7]
  IC50: 662 nM
Human NaV1.4 [6]; [8]
  IC50: > 10000 nM
Human NaV1.5 [4]; [9]
  IC50: > 10000 nM

## CC[C@H](C)[C@H](NC(=O)[C@@H](NC(=O)[C@H](CCCCN)NC(=O)[C@H](CCCNC(=N)N)NC(=O)[C@@H]1CSSC[C@@H]2NC(=O)[C@H](C)NC(=O)[C@H](CCCNC(=N)N)NC(=O)[C@H](CCCCN)NC(=O)[C@H](CO)NC(=O)[C@H](CC(=O)O)NC(=O)[C@@H]3CSSC[C@H](NC(=O)[C@H](CCCNC(=N)N)NC(=O)[C@H](CC(C)C)NC(=O)CNC(=O)[C@H](CCC(=O)O)NC(=O)[C@H](CSSC[C@H](NC(=O)[C@@H](N)Cc4ccc(O)cc4)C(=O)N[C@@H](CCC(N)=O)C(=O)N[C@@H](C)C(=O)N[C@@H](Cc4c[nH]c5ccccc45)C(=O)N[C@@H](CCSC)C(=O)N[C@@H](Cc4c[nH]c5ccccc45)C(=O)N[C@@H]([C@@H](C)O)C(=O)N3)NC2=O)C(=O)N[C@@H](CCCCN)C(=O)N[C@@H](CC(C)C)C(=O)N[C@@H](Cc2c[nH]c3ccccc23)C(=O)N1)[C@@H](C)CC)C(N)=O [K4 Ala mutant]
Human NaV1.7 [5]; read-out: Ala mutant IWQ IC50 NaV1.7
  IC50: 417 nM
Human NaV1.4 [6]; read-out: Ala mutant IWQ IC50 NaV1.4
  IC50: 3260 nM
Human NaV1.5 [4]; read-out: Ala mutant IWQ IC50 NaV1.5
  IC50: > 10000 nM

## CC[C@H](C)[C@H](NC(=O)[C@@H](NC(=O)[C@H](CCCCN)NC(=O)[C@H](CCCNC(=N)N)NC(=O)[C@@H]1CSSC[C@@H]2NC(=O)[C@H](C)NC(=O)[C@H](CCCNC(=N)N)NC(=O)[C@H](CCCCN)NC(=O)[C@H](CO)NC(=O)[C@H](CC(=O)O)NC(=O)[C@@H]3CSSC[C@H](NC(=O)[C@H](CCCNC(=N)N)NC(=O)[C@H](CC(C)C)NC(=O)CNC(=O)[C@H](CCC(=O)O)NC(=O)[C@H](CSSC[C@H](NC(=O)[C@@H](N)Cc4ccc(O)cc4)C(=O)N[C@@H](CCC(N)=O)C(=O)N[C@@H](CCCCN)C(=O)N[C@@H](Cc4c[nH]c5ccccc45)C(=O)N[C@@H](CCSC)C(=O)N[C@@H](Cc4c[nH]c5ccccc45)C(=O)N[C@@H](CCC(=O)O)C(=O)N3)NC2=O)C(=O)N[C@@H](CCCCN)C(=O)N[C@@H](CC(C)C)C(=O)N[C@@H](Cc2c[nH]c3ccccc23)C(=O)N1)[C@@H](C)CC)C(N)=O [T8 Glu mutant]
Human NaV1.7 [5]; [7]
  IC50: 3860 nM
Human NaV1.4 [6]; [8]
  IC50: > 10000 nM
Human NaV1.5 [4]; [9]
  IC50: > 10000 nM

## CC[C@H](C)[C@H](NC(=O)[C@@H](NC(=O)[C@H](CCC(=O)O)NC(=O)[C@H](CCCNC(=N)N)NC(=O)[C@@H]1CSSC[C@@H]2NC(=O)[C@H](C)NC(=O)[C@H](CCCNC(=N)N)NC(=O)[C@H](CCCCN)NC(=O)[C@H](CO)NC(=O)[C@H](CC(=O)O)NC(=O)[C@@H]3CSSC[C@H](NC(=O)[C@H](CCCNC(=N)N)NC(=O)[C@H](CC(C)C)NC(=O)CNC(=O)[C@H](CCC(=O)O)NC(=O)[C@H](CSSC[C@H](NC(=O)[C@@H](N)Cc4ccc(O)cc4)C(=O)N[C@@H](CCC(N)=O)C(=O)N[C@@H](CCCCN)C(=O)N[C@@H](Cc4c[nH]c5ccccc45)C(=O)N[C@@H](CCSC)C(=O)N[C@@H](Cc4c[nH]c5ccccc45)C(=O)N[C@@H]([C@@H](C)O)C(=O)N3)NC2=O)C(=O)N[C@@H](CCCCN)C(=O)N[C@@H](CC(C)C)C(=O)N[C@@H](Cc2c[nH]c3ccccc23)C(=O)N1)[C@@H](C)CC)C(N)=O [K27 Glu mutant]
Human NaV1.7 [5]; [7]
  IC50: 748 nM
Human NaV1.4 [6]; [8]
  IC50: > 10000 nM
Human NaV1.5 [4]; [9]
  IC50: > 10000 nM
